# Source: PMC6302136, “Quantitative Chemotherapeutic Profiling of Gynecologic Cancer Cell Lines Using Approved Drugs and Bioactive Compounds^” (Translational Oncology, 2018)
# Where two headings read alike, the source gives them in different places. *1 amine or outer side, *2 acyl side, *3 side chain or, on linkers, in order; H or OH if unused. Where a SMILES comes first, the peptide text is derived from it. Bridges are numbered along the chain shown (N, C = ends). Roman numbers before positions name the chains, in order. [ ]: non-standard residue; d: D form. Actinocin(9to1) = Cc1c2oc3c(C)ccc(C(=O)[*:1])c3nc-2c(C(=O)[*:2])c(N)c1=O; NMeV = CN[C@H](C(=O)O)C(C)C; Sar = CNCC(=O)O
# How the values were obtained:
# TOV-21-G cells = assay: qHTS ATPlite cell viability, TOV-21-G cells; assay type: cell-based, human; conditions: for IC50: Homo sapiens, TOV21G, 48 h; for Avg SI: TOV-21-G selective compounds, vs HEK 293T, >100 = inactive in HEK293T
# [1] = system: ovarian cancer cell lines; assay: qHTS ATPlite cell viability, ovarian cancer cell lines; assay type: cell-based, human; conditions: for Average SI: vs HEK 293T, >100 = inactive in HEK293T
# [2] = system: 11 gynecologic cancer cell lines; assay: qHTS ATPlite cell viability, gynecologic cancer cell lines (ovarian, cervical, placental); assay type: cell-based, human; conditions: for Cell Lines Active: number of the 11 cancer cell lines in which the compound is active (<1 μM potency, >70% efficacy); for Average SI: selectivity index vs HEK 293T
# Protocol: (§1) The ATPlite luminescence assay system assay kit was used to determine cell viability. The reagent was reconstituted and prepared as described by the manufacturer. To measure the cell death caused by the compounds, cells were cultured in 4 μl of media for 16 hours at 37°C with 5% CO2 in assay plates, followed by the addition of DMSO or 16 SOC chemotherapeutic compounds dissolved in DMSO. SOC compounds were dosed at 11 concentrations (1:3 dilution) in quadruplicate from 57.5 μM to 0.977 nM using the automated Wako 1536 Pin Tool workstation and incubated at 37°C with 5% CO2 for 24, 48, or 72 hours. Four microliters of ATPlite, the ATP monitoring reagent, was then added to each well of the assay plates using the Multidrop Combi reagent dispenser followed by incubation for 15 minutes at room temperature. The resulting luminescence was measured using the ViewLux plate reader. Data were normalized for each drug using the largest luminescence value as 100% full cell viability (0% cell killing) and to the smallest luminescence value 0% viability (100% cell killing).
# (§2) A qHTS [79], in which each compound was assayed in five concentrations (0.092, 0.46, 2.3, 11.5, and 57.5 μM), was performed for the primary compound screen using the NPC [80] and NPACT drug libraries at NCATS. The OBGYN cancer and HEK 293T control cells were seeded into 1536-well assay plates at 1000 cells per 4 μl/well and incubated at 37°C in 5% CO2 for 48 hours. The ATPlite assay to determine the IC50 values for each compound was conducted as described above. Plates were processed on the fully integrated Kalypsys robotic system.
# [3] = cited from earlier work
# [4] = system: placental cancer cell lines (JAR, JEG-3); assay: qHTS ATPlite cell viability, placental cancer cell lines; assay type: cell-based, human; conditions: for IC50: Homo sapiens, JEG-3
# Protocol: as §1
# The ATPlite assay to determine the IC50 values for each compound was conducted as described above. Plates were processed on the fully integrated Kalypsys robotic system.
# PA-1 cells = assay: ATP content (ATPlite) cell viability assay in PA-1 cells; assay type: cell-based, human
# CAOV-3 cells = assay: ATP content (ATPlite) cell viability assay in CAOV-3 cells; assay type: cell-based, human; conditions: assay optimization
# Protocol: as §1
# [5] = system: ovarian and placental cancer cell lines; assay: qHTS ATPlite cell viability, ovarian + placental cancer cell lines; assay type: cell-based, human; conditions: for IC50: Homo sapiens, 48 h; for Average SI: vs HEK 293T, >100 = inactive in HEK293T
# Protocol: as §1, §2
# HeLa cells = assay: qHTS ATPlite cell viability, HeLa cells; assay type: cell-based, human; conditions: for Avg SI: HeLa selective compounds, vs HEK 293T; for IC50: HeLa, confirmation screen, 48 h
# HEK 293T cells [6] = system: HEK 293T cells; parameters: method as in PMID 31498718; conditions: CellTiterGlo, cited from earlier work; for IC50: independent screen
# HEK 293T cells [7] = assay: cells; conditions: 48 h; for IC50: read-out: IC50 (HEK 293T toxicity)
# Protocol: as §1, §2
# [8] = system: ovarian and cervical cancer cell lines; assay: qHTS ATPlite cell viability, ovarian + cervical cancer cell lines; assay type: cell-based, human; conditions: Ovarian + cervical cancer cell line killer
# Protocol: A qHTS [79], in which each compound was assayed in five concentrations (0.092, 0.46, 2.3, 11.5, and 57.5 μM), was performed for the primary compound screen using the NPC [80] and NPACT drug libraries at NCATS. […]
# [9] = system: cervical cancer cell lines (HeLa, Ca Ski, C-33 A); assay: qHTS ATPlite cell viability, cervical cancer cell lines; assay type: cell-based; conditions: Homo sapiens
# [10] = Homo sapiens, Ovarian cell line killer, mean of cell lines fulfilling criteria, 48 h, read-out: Average IC50
# [11] = Homo sapiens, average IC90 over the cell lines in which the compound is active, read-out: IC90
# [12] = Placental cancer cell line killer, mean of cell lines fulfilling criteria, 48 h, read-out: Average IC50
# [13] = Ovarian cell line killer, mean of cell lines fulfilling criteria, 48 h, read-out: Average IC50
# [14] = Ovarian + placental cancer cell line killer
# [15] = toxic compounds, average over all cancer cell lines, mean ± S.D.
# [16] = HEK 293T, this screen (ATPlite)
smiles,measurement,setting,value
"CNC(=O)c1nn(C)c2c1C(C)(C)Cc1cnc(Nc3ccc(N4CCN(C)CC4)cc3)nc1-2 [Milciclib, N,1,4,4-tetramethyl-8-{[4-(4-methylpiperazin-1-yl)phenyl]amino}-4,5-dihydro-1H-py razolo[4,3-h]quinazoline-3-carboxamide]",IC50,"TOV-21-G cells; TOV-21-G, confirmation screen, read-out: Avg IC50",0.0897 µM
same,Avg SI,TOV-21-G cells,50.1
COc1cc(Nc2ncc(F)c(Nc3ccc4c(n3)N(COP(=O)(O)O)C(=O)C(C)(C)O4)n2)cc(OC)c1OC [Fostamitinib],IC50,[1]; [10],6240 ± 4060 nM
same,Average SI,[1]; Ovarian cell line killer,>100
same,Average SI,"[1]; Ovarian cell line killer, listed as fostamatinib",> 100
CC(C)C[C@H](NC(=O)[C@H](Cc1ccccc1)NC(=O)c1cnccn1)B(O)O [Bortezomib],IC90,[2]; [11],218 nM
same,IC50,"[2]; Homo sapiens, average over the cell lines in which the compound was active, read-out: average IC50",150 nM
same,Cell Lines Active,[2],8
same,Cmax,"[3]; intravenous dose, read-out: Cmax",580 nM
CC[C@@H]1C(=O)N(C)c2cnc(Nc3ccc(C(=O)N[C@H]4CC[C@H](N5CCN(CC6CC6)CC5)CC4)cc3OC)nc2N1C(C)C [Volasertib],IC90,[2]; [11],90 nM
same,Cell Lines Active,[2],4
same,IC50,[4]; [12],70.9 ± 7.35 nM
same,Average SI,"[4]; Placental cancer cell line killer, vs HEK 293T, >100 = inactive in HEK293T",131 ± 13.5
CNc1nccc(-c2cccnc2Oc2cc(C(=O)Nc3cccc(C(F)(F)F)c3)ccc2C)n1 [AMG-Tie2-1],IC50,[1]; [13],15900 ± 9710 nM
same,Average SI,[1]; Ovarian cell line killer,>100
CC(=O)OC(C)(C)/C=C/C(=O)[C@](C)(O)[C@H]1[C@H](O)C[C@@]2(C)[C@@H]3CC=C4[C@H](C[C@H](O)C(=O)C4(C)C)[C@]3(C)C(=O)C[C@]12C [Curcubitacin B],IC50,"PA-1 cells; 48 hours incubation, assay optimization, read-out: IC50 (PA-1)",63.2 nM
same,IC50,"PA-1 cells; 72 hours incubation, assay optimization, read-out: IC50 (PA-1)",61.8 nM
same,IC50,CAOV-3 cells; 24 hours incubation,18.1 nM
same,IC50,CAOV-3 cells; 48 hours incubation,~20.6 nM
same,IC50,CAOV-3 cells; 72 hours incubation,22.2 nM
CNC(=O)c1ccccc1Nc1nc(Nc2ccc(N3CCOCC3)cc2OC)ncc1Cl [TAE226],IC50,[1]; [13],5320 ± 1420 nM
same,Average SI,[1]; Ovarian cell line killer,8.76 ± 2.40
CCOc1cc2ncc(C#N)c(Nc3ccc(OCc4ccccn4)c(Cl)c3)c2cc1NC(=O)/C=C/CN(C)C [Neratinib],IC50,TOV-21-G cells; read-out: Avg IC50 (μM),0.619 µM
same,Avg SI,TOV-21-G cells,>100
COc1cccc2c1C(=O)c1c(O)c3c(c(O)c1C2=O)C[C@@](O)(C(=O)CO)C[C@@H]3O[C@H]1C[C@H](N)[C@H](O)[C@H](C)O1 [Adriamycin],IC50,"PA-1 cells; Homo sapiens, PA-1, 24 hours incubation, assay optimization, read-out: IC50 (PA-1)",109 nM
same,IC50,"PA-1 cells; Homo sapiens, PA-1, 48 hours incubation, assay optimization, read-out: IC50 (PA-1)",11.8 nM
same,IC50,"PA-1 cells; Homo sapiens, PA-1, 72 hours incubation, assay optimization, read-out: IC50 (PA-1)",3.59 nM
same,IC50,"PA-1 cells; Homo sapiens, PA-1, confirmation screen, 48 h, read-out: Avg IC50",576 nM
same,Avg SI,"PA-1 cells; PA-1 selective compounds, vs HEK 293T, >100 = inactive in HEK293T",7.02
same,IC50,"CAOV-3 cells; Homo sapiens, Caov-3, 24 hours incubation",15900 nM
same,IC50,"CAOV-3 cells; Homo sapiens, Caov-3, 48 hours incubation",98.2 nM
same,IC50,"CAOV-3 cells; Homo sapiens, Caov-3, 72 hours incubation",73.7 nM
"Cc1c2oc3c(C)ccc(C(=O)N[C@@H]4C(=O)N[C@H](C(C)C)C(=O)N5CCC[C@H]5C(=O)N(C)CC(=O)N(C)[C@@H](C(C)C)C(=O)O[C@@H]4C)c3nc-2c(C(=O)N[C@@H]2C(=O)N[C@H](C(C)C)C(=O)N3CCC[C@H]3C(=O)N(C)CC(=O)N(C)[C@@H](C(C)C)C(=O)O[C@@H]2C)c(N)c1=O [Actinomycin D] (I: T[dV]P[Sar][NMeV] / II: T[dV]P[Sar][NMeV]; ester I:1-I:C, II:1-II:C; linker I:N-II:N via Actinocin(9to1))",IC90,"[2]; Homo sapiens, read-out: average IC90",512 nM
same,IC50,[5]; read-out: Average IC50 (μM),0.78 ± 0.222 µM
same,Average SI,[5]; [14],>100
same,Average SI,"[5]; Ovarian + placental cancer cell line killer, listed as actinomycin D",> 100
COc1cc(N2CCC(N)CC2)ccc1Nc1ncc(Cl)c(-c2c[nH]c3ccccc23)n1 [AZD3463],Avg SI,HeLa cells,30.3
same,IC50,HeLa cells,638 nM
C=CC(=O)Nc1cccc(Oc2nc(Nc3ccc(N4CCN(C)CC4)cc3)ncc2Cl)c1 [WZ3146],IC50,[1]; [13],12300 ± 8520 nM
same,Average SI,[1]; Ovarian cell line killer,>100
C[C@@H](Oc1ccc2[nH]nc(/C=C/c3cnn(CCO)c3)c2c1)c1c(Cl)cncc1Cl [LY2874455],Avg SI,HeLa cells,38.8
same,IC50,HeLa cells; Homo sapiens,240 nM
Cc1cnc(Nc2ccc(OCCN3CCCC3)cc2)nc1Nc1cccc(S(=O)(=O)NC(C)(C)C)c1 [Fedratinib],selective killing of ovarian cancer lines,"[1]; SI of 5 or greater, six ovarian lines",selectivity killed all six ovarian cancer lines
same,IC50,"[5]; Ovarian + placental cancer cell line killer, mean of cell lines fulfilling criteria, read-out: Average IC50",13.1 ± 7.51 µM
same,Average SI,[5]; [14],>100
same,Average SI,"[5]; Ovarian + placental cancer cell line killer, listed as fedratinib",> 100
CCS(=O)(=O)c1cccc(-c2cc(C(=O)NC3CCN(C)CC3)c(C)c3[nH]c4ncc(C)cc4c23)c1 [TAK 901],Avg SI,HeLa cells,12.6
same,IC50,HeLa cells; Homo sapiens,699 nM
COc1cc(N2CCC(N3CCN(C)CC3)CC2)ccc1Nc1ncc(Cl)c(Nc2ccccc2S(=O)(=O)C(C)C)n1 [NVP-TAE684],IC50,"[2]; toxic compounds, average over all cancer cell lines, 48 h, mean ± S.D., read-out: Average IC50",15700 ± 10000 nM
same,Average SI,[2]; [15],4.87 ± 7.61
same,"Efficacy (%) (independent screen, HEK 293T)",HEK 293T cells [6],126%
same,Independent Screen (confirmation of HEK 293T toxicity),HEK 293T cells [6],Confirmed toxic
same,IC50,HEK 293T cells [6],3650 nM
same,Efficacy (%) (HEK 293T toxicity),HEK 293T cells [7]; [16],91.8%
same,IC50,HEK 293T cells [7]; [16],23400 nM
same,Avg SI,HeLa cells,28.0
same,IC50,HeLa cells,835 nM
Cc1cc(Nc2nc(N[C@@H](C)c3ccc(F)cc3)c(C#N)cc2F)[nH]n1 [AZ-960],IC50,[1]; [10],12000 ± 7750 nM
same,Average SI,[1]; Ovarian cell line killer,>100
Cc1cc(CN2CCN(c3c(Br)cnc4nc(-c5ccc(N6CCN(C)CC6)cc5)[nH]c34)CC2)no1 [CCT137690],IC50,"[8]; mean of cell lines fulfilling criteria, 48 h",20000 ± 7020 nM
same,Average SI,"[8]; vs HEK 293T, >100 = inactive in HEK293T",>100
Cc1[nH]c2ccccc2c1CCNCc1ccc(/C=C/C(=O)NO)cc1 [Panobinostat],IC90,[2]; [11],719 nM
same,IC50,"[2]; Homo sapiens, toxic compounds, average over all cancer cell lines, 48 h, mean ± S.D., read-out: Average IC50",355 ± 268 nM
same,Cell Lines Active,[2],11
same,Average SI,[2]; [15],0.92 ± 0.57
same,IC50,"[1]; Homo sapiens, read-out: IC50 for the ovarian lines",343 nM
same,"Efficacy (%) (independent screen, HEK 293T)",HEK 293T cells [6],85.5%
same,Independent Screen (confirmation of HEK 293T toxicity),HEK 293T cells [6],Confirmed toxic
same,IC50,HEK 293T cells [6],162 nM
same,IC50,[9],224 nM
same,Cmax,"[3]; oral administration, read-out: Cmax human plasma concentration, range",38 to 119 nM
same,Cmax,"[3]; oral administration, read-out: median Cmax human plasma concentration",61 nM
same,IC50,[4]; read-out: IC50 for the placental lines,516 nM
same,Efficacy (%) (HEK 293T toxicity),HEK 293T cells [7]; [16],82.6%
same,IC50,"HEK 293T cells [7]; Homo sapiens, HEK-293T",210 nM
same,toxicity to HEK 293T cells,HEK 293T cells [7]; human,equally toxic to HEK 293T cells
COc1ccc2cc3[n+](cc2c1OC)CCc1cc2c(cc1-3)OCO2 [Berberine],IC50,[4]; [12],4410 ± 662 nM
